Measured values reported in patent US20110039333A1, “DEFINED CONDITIONS FOR HUMAN EMBRYONIC STEM CELL CULTURE AND PASSAGE” (UNIVERSITY OF SOUTHERN CALIFORNIA, priority 2009, published 2011).

Legend:
[1] = tested on: HES2 cells; assay: Clonal proliferation assay, HES2 cells in MEF-CM; format: cell-based, human; details: ID-8 at 0.5 μM; single cells on Matrigel in MEF-CM; control ~0.6%
Method: The clonal proliferation assay was described previously. Briefly, the hES cells in feeder-free culture were dissociated completely with 0.05% trypsin-EDTA.(Invitrogen), and are seeded at 10^4 cells/well in Matrigel-coated 6-well culture plates and cultured in MEF-conditioned medium. Various concentration of Wnt3a (purified in our laboratory or purchased from Peprotech), IQ-1, ID-8 and/or ICG-001 (all three chemicals were synthesized in our laboratory), were supplemented into the culture media at the onset of seeding, then continuously until the end of culturing. For all assays, the cell and colony morphology were examined under microscope, and the replating efficiency was examined by counting the number of colonies after 7 days of culture.
For quantitative PCR analysis, total RNA was isolated from hESCs cultured in feeder-free condition with or without Wnt3a and Id-8 using RNeasy micro kit (Qiagen). RT was performed with Omniscript (Qiagen) and quantitative RT-PCR was then performed, using each gene-specific primer/probe mix (TaqMan Gene Expression Assays), TaqMan 2× Master Mix, and ABI PRISM 7900 Sequence Detection system (Applied Biosystems, CA) according manufacture's protocol. The PCR data was analyzed by delta/delta OT method and normalized with PPIA expression.
The hESC colonies were fixed with 4% paraformaldehyde, and alkaline phosphatase (ALP) activity was determined with a Vector Blue Alkaline Phosphatase Substrate Kit (Vector Laboratories, CA). Immunostaining was carried out with the following primary antibodies: TRA-1-60 and TRA-1-80 (Santa Cruz Biotechnology, CA), anti-stage specific embryonic antigen (SSEA)-3 and -4 (Developmental Studies Hybridoma Bank at the University of Iowa), anti-OCT-3 (clone C-10, Santa Cruz Biotechnology, CA), or goat anti-Nanog (R&D systems, MN). Then, samples were incubated with Alexa Fluor 488- or 594-conjugated (Molecular Probes, NY), then detected with indirect immunofluorscence microscopy.
The effects of canonical Wnt ligand, Wnt3a and several small molecule Wnt signaling modulators in a clonal proliferation assay were investigated first (9) (FIG. 3A). When HES2 cells (2) were dissociated into single cells and seeded on Matrigel-coated plates in mouse embryonic fibroblast-conditioned medium (MEF-CM)(20), the colony forming efficiency was ˜0.6% (replating efficiency: colony number/seeded cell number). Supplementation with Wnt3a enhanced colony formation (˜1% at 100 ng/ml). The colonies were larger and consisted of more cells. […] ID-8, which was identified in the same screen as IQ-1 (21), also enhances the β-catenin/CBP association and increased hESC survival (˜1.1% at 0.5 μM). […] To examine the scope of this effect in hESC, clonal proliferation assays were performed with the additional hESC lines, HES3 (2) and H9 (1) (FIG. 3H).

[2] = molecular target: T1, DYRK2 (Homo sapiens, UniProt Q92630); assay: ID-8 affinity chromatography / pull-down with biotinylated ID-8, competition by free ID-8; format: binding; details: cell lysates; competition with free ID-8
T1 construct: endogenous in cells
T1 sequence (Q92630 1-601): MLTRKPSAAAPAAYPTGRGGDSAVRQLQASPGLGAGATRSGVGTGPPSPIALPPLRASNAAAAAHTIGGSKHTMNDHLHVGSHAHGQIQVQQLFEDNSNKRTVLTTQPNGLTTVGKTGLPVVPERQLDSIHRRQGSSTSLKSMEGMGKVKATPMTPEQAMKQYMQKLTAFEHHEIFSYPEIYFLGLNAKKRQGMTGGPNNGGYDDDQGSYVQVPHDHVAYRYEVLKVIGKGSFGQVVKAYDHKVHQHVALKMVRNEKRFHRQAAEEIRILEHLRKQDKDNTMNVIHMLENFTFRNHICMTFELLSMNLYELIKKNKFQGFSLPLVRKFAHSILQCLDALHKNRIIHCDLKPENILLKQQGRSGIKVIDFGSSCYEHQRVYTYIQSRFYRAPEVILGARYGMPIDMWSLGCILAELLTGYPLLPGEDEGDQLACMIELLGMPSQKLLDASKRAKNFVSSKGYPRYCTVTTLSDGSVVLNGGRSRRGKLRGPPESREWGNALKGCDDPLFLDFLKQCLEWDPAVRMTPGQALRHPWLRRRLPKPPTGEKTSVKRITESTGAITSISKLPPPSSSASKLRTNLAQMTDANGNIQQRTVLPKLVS
Method: The cells were washed twice with 5 mL of ice-old PBS and scraped using 1 mL of PBS containing protease inhibitor cocktail (Calbiochem 539137). The cells were collected by centrifugation and the cell pellet was frozen and stocked with liquid nitrogen. Total 2 g of cell pellet was thawed on ice and then suspended in 20 mL of chilled M-Per (Pierce 78501) buffer containing 1 mM DTT and the protease inhibitor cocktail. The cell suspension was mixed and lysed on a nutator (BD Diagnostics) for 30 minutes at 4° C. The lysate was then centrifuged at 10,000 rpm for 30 minutes at 4° C., and the supernatant was divided into two equal aliquots in 50 mL centrifuge tubes. […]
After pre-treatment with free competitor ID-8 or DMSO control, the streptayidin-sepharose bound with biotinylated ID-8 was applied on the lysates. […] The specific bands lost by competitor free ID-8 was analyzed by LC/MS (LTQ-XL, Thermo Scientific).
The elution was also analyzed by or western blotting with specific antibodies against DYRK1a (Cell Signaling 2771), DYRK2 (Abeam ab37912), DYRK3 (Santa Cruz sc-66868), DYRK4 (Abeam ab37911), or HIP2K (Santa Cruz sc-100383).
ID-8 (FIG. 4A) can enhance β-catenin/CBP-mediated transcription, however, its direct molecular target(s) remained unidentified. […] To confirm this, the inventors designed miRNA to target the DYRK family and evaluated them after transfection by immunoblotting (FIG. 4D-E). […]

Structure (SMILES): COc1ccc(-n2c(C)c([N+](=O)[O-])c3ccc(O)cc32)cc1 [ID-8]
- replating efficiency (colony number/seeded cell number), hESC survival [1]: ~1.1%
- binding of DYRK2 to ID-8 affinity column [2]: competed away by free ID-8
